The target of data set [1] is T1, human recombinant acetylcholinesterase (hrAChE) (Homo sapiens, UniProt P22303).
T1 construct: purchased Sigma-Aldrich, St. Louis, MO, USA
Briefly: Cholinesterase inhibition assay (Ellman's method), hrAChE. The format is biochemical. The conditions noted are these: for IC50: Ellman's method, 25 °C, pH 7.4. As to the method:
(§1) Cholinesterase activity was measured by Ellman’s method adapted for microtiter plates, as previously described by Ristovski et al.. A complex and its ligands were first screened for the IC50 determination and then the inhibitory constants (Ki) were determined. A stock solution of C1 (1 mg/mL) was prepared in 5% v/v DMSO in deionized water, while a stock solution of chlorido analogue C1′ (1 mg/mL) was prepared in 100% methanol (MeOH). […] These solutions were added to the wells, and gradually diluted in 100 mM of potassium phosphate buffer (pH 7.4) to the final volume of 50 µL. Acetylthiocholine chloride and 5,5′-dithiobis-2-nitrobenzoic acid were then dissolved in the same buffer to the respective final concentrations of 1 and 0.5 mM and added (100 μL) to the wells of the microtiter plates. C1 was screened against a suite of ChEs of human and animal origin (eeAChE, hrAChE, hsBChE) (all three from Sigma-Aldrich, St. Louis, MO, USA), hrBChE (gift from the research group of Professor Stanislav Gobec, Faculty of Pharmacy, University of Ljubljana), and csBChE. All enzymes were dissolved in the 100 mM potassium phosphate buffer (pH 7.4) to 0.0075 U/mL. Fifty μL of each ChE was added to start the reactions, which were followed spectrophotometrically at 405 nm and 25 °C for 5 min using a kinetic microplate reader (Dynex Technologies Inc., Chantilly, VA, USA). The blank reactions without the inhibitors were run with the appropriate dilutions of the solvents, in which the tested compound and positive control were initially diluted (5% aqueous DMSO or 100% MeOH), and the readings were corrected according to the appropriate blanks. […] Each measurement was repeated at least three times. Data were analyzed using OriginPro software (OriginPro 2020, OriginLab Corporation, Northampton, MA, USA).

The target in data set [2] is canine serum butyrylcholinesterase (csBChE) (Canis lupus familiaris, UniProt A0A8I3PBA0). Kind of data set: Cholinesterase inhibition assay (Ellman's method), csBChE. The format is biochemical. The conditions noted are these: for IC50: Ellman's method, 25 °C, pH 7.4. As to the method: as §1
Sequence of canine serum butyrylcholinesterase (csBChE) (A0A8I3PBA0 29-602): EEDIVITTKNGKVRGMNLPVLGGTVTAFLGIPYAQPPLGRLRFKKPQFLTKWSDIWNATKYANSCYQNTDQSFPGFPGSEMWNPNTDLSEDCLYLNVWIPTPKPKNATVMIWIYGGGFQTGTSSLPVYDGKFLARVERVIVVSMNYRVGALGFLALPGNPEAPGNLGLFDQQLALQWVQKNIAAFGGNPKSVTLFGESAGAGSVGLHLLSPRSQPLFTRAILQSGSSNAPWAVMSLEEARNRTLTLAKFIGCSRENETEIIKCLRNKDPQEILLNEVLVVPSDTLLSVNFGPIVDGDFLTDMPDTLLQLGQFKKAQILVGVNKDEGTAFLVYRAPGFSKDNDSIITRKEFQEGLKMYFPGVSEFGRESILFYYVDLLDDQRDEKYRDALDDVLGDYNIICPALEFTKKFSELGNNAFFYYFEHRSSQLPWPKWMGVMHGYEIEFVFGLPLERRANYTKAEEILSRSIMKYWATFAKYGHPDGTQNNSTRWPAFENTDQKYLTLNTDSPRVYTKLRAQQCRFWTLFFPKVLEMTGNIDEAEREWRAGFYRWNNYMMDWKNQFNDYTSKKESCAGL
In general terms: DTNB colorimetry detects thiols as they appear.

The target of data set [3] is T2, horse serum butyrylcholinesterase (hsBChE) (Equus caballus, UniProt P81908).
T2 construct: BChE derived from horse serum; purchased Sigma-Aldrich, St. Louis, MO, USA; host or cells: horse serum
T2 sequence (P81908 whole entry): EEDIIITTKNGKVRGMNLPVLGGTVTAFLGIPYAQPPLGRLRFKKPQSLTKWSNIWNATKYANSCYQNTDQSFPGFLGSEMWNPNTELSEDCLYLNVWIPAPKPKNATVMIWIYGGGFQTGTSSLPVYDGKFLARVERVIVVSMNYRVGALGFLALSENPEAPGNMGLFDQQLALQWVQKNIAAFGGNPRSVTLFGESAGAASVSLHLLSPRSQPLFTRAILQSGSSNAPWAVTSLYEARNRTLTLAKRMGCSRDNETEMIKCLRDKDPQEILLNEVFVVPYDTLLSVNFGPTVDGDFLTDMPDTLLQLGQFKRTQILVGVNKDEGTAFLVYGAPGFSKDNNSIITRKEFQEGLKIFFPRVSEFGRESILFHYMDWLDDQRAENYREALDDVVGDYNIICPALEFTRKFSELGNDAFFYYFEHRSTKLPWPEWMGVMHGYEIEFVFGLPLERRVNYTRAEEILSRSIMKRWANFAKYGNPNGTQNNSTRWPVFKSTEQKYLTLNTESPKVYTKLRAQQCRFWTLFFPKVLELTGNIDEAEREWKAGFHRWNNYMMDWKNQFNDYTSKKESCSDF
Briefly: Cholinesterase inhibition assay (Ellman's method), hsBChE. The format is biochemical. The conditions noted are these: for IC50: Ellman's method, 25 °C, pH 7.4. As to the method: as §1

The target of data set [4] is T3, electric eel acetylcholinesterase (eeAChE) (Electrophorus electricus, UniProt O42275).
T3 construct: purchased Sigma-Aldrich, St. Louis, MO, USA
T3 sequence (O42275 24-633): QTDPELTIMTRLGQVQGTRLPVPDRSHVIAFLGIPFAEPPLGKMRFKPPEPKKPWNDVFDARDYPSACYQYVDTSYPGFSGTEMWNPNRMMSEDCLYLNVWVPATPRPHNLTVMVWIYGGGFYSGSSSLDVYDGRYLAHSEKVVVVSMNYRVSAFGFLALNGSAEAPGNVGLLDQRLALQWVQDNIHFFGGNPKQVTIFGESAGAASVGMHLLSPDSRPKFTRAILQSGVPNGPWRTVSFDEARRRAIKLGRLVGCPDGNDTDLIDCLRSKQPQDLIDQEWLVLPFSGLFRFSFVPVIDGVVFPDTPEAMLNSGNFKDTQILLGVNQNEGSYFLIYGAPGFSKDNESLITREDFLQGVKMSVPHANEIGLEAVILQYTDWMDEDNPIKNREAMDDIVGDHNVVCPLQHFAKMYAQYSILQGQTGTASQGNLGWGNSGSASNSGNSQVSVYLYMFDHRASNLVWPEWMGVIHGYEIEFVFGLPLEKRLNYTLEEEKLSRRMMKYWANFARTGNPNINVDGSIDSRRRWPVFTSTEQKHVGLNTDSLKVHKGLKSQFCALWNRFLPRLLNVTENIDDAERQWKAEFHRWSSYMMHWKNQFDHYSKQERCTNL
Kind of data set: Cholinesterase inhibition assay (Ellman's method), eeAChE. It counts as biochemical. The conditions noted are these: for IC50: Ellman's method, 25 °C, pH 7.4. How it is done: as §1

In data set [5] the target is T4, human recombinant butyrylcholinesterase (hrBChE) (Homo sapiens, UniProt P06276).
T4 construct: gift from the research group of Professor Stanislav Gobec, Faculty of Pharmacy, University of Ljubljana
T4 sequence (P06276 29-602): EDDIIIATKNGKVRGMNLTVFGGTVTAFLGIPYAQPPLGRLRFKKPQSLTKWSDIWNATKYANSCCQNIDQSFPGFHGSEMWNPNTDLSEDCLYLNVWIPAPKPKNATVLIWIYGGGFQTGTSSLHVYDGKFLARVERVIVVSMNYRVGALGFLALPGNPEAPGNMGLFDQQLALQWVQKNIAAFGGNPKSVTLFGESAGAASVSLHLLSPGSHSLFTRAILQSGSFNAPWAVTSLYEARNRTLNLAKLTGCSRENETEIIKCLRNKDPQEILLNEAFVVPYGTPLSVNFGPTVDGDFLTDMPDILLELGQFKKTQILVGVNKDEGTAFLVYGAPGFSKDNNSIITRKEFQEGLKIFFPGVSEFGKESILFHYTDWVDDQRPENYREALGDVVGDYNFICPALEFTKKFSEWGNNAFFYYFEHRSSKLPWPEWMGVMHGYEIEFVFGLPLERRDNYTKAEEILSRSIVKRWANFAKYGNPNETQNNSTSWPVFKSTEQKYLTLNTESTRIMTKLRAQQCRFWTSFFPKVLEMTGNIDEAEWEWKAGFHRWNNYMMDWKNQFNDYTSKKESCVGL
Briefly: Cholinesterase inhibition assay (Ellman's method), hrBChE. The format is biochemical. The conditions noted are these: for IC50: Ellman's method, 25 °C, pH 7.4. How it is done:
as §1

Data set [6] deals with T2, horse serum butyrylcholinesterase (hsBChE). The conditions noted are these: previously reported; ref Ristovski et al. [9]; cited from earlier work.
In data set [7] the target is T3, electric eel acetylcholinesterase (eeAChE). The conditions noted are these: previously reported; ref Ristovski et al. [9]; cited from earlier work.
Data set [8] concerns the target T1, human recombinant acetylcholinesterase (hrAChE). The conditions noted are these: previously reported; ref Ristovski et al. [9]; cited from earlier work.
For data set [9], the system named is AChE in mouse diaphragm muscle. The conditions noted are these: 3 µM; cited from earlier work.
In data set [10] the test system is isolated mouse nerve-hemidiaphragm preparation. Briefly: Muscle contraction recordings on isolated hemidiaphragm. How it is done: (§2) Mice were sacrificed by cervical dislocation and immediate exsanguination. After dissection of the diaphragm muscle with both phrenic nerves, the diaphragm muscle was cut into two hemidiaphragms. Each hemidiaphragm was maintained in oxygenated standard Krebs-Ringer solution (154 mM NaCl, 5 mM KCl, 2 mM CaCl2, 1 mM MgCl2, 5 mM HEPES, and 11 mM D-glucose; pH 7.4). Just prior to experiments, C1 was dissolved in a solution of 2.5% DMSO in deionized water at a stock concentration of 2 mg/mL. The final concentration of DMSO in the organ bath was always 0.104% v/v. All experiments were performed at room temperature (22–24 °C).
The hemidiaphragm with phrenic nerve was pinned on its lateral side into a silicon-coated organ bath containing oxygenated Krebs-Ringer (K-R) solution. Then, the tendon part was linked to the lever of an isometric mechano-electrical transducer (Grass Instruments, West Warwick, RI, USA) via a stainless-steel hook and silk thread. The equal stimulus protocol, equipment, and software were used as previously described by Ristovski et al.. The concentrations of C1 studied were 30, 60, 90, and 120 μM and their effect on muscle contraction was continuously measured during 60 min after application. The muscle twitch and tetanic contraction blockade produced by C1 was shown as the percentage of the initial maximal response.

Data set [11] has as its target T2, horse serum butyrylcholinesterase (hsBChE). Kind of data set: Cholinesterase inhibition assay (Ellman's method), hsBChE. It counts as biochemical. The conditions noted are these: substrate acetylthiocholine 0.125, 0.25, 0.5 mM.
Data set [12] relates to mouse hemidiaphragm muscle fibers. The conditions noted are these: 120 µM; for resting membrane potential (rVm), median: end-plate regions of surface fibers. How it is done:
as §2
Electrophysiological recordings on hemidiaphragm muscle fibers were performed using conventional microelectrode techniques. For measurements of rVm, EPP, and MEPP, hemidiaphragm preparations were immersed in oxygenated K-R solution containing 1.6 μM of μ-conotoxin GIIIB (Bachem, Bubendorf, Switzerland) and incubated for 30 min. The same stimulus protocol, equipment, and software were used to perform membrane potential recordings, as previously described by Ristovski et al.. Only the highest concentration of C1 (120 μM) was studied. The recordings were performed before applying C1, 30 and 60 min after the compound application, and 15 min after the compound wash-out. MEPP and EPP amplitudes were normalized to a rVm of −70 mV using the formula: Vc = Vo (−70)/rVm, where Vc is the normalized amplitude of MEPPs and EPPs, and Vo is their recorded amplitude.

Like-named read-outs stand apart in the source and are kept apart here.

T1 sequence (P22303 32-614): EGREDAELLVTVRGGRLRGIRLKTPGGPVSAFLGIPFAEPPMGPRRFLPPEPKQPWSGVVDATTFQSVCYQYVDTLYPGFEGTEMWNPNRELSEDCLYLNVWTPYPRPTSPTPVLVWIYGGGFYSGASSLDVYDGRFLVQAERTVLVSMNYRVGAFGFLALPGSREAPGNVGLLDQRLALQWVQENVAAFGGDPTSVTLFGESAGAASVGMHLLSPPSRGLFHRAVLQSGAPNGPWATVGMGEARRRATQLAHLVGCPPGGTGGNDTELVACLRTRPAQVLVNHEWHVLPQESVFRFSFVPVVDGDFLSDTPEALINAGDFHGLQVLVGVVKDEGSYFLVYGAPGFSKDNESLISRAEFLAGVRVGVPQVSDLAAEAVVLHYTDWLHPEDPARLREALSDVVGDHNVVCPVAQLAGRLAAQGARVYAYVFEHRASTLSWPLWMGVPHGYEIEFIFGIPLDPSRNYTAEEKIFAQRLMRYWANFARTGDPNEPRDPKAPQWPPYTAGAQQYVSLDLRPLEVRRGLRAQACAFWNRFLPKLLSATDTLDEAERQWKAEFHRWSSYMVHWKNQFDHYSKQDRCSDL

As usually defined, the IC50 is the concentration at which inhibition is half-maximal. For `COc1cccn(O)c1=S` [Compound L1, 1-hydroxy-3-methoxypyridine-2(1H)-thion], in data set [1], the “inhibition of hrAChE (in words)” value is recorded as “did not inhibit” and the IC50 is greater than 180 µM. Also, in [2], the “inhibition of csBChE (in words)” value is “did not inhibit” and the IC50 is greater than 180 µM. For the same compound, in data set [3], the “inhibition of hsBChE (in words)” value is “did not inhibit” and the IC50 is greater than 180 µM. In data set [4], the “inhibition of eeAChE (in words)” value was “did not inhibit” and the concentration for half-maximal inhibition (IC50) is greater than 180 µM. Moreover, in [5], the “inhibition of hrBChE (in words)” value is “did not inhibit” and the half-inhibitory concentration (IC50) is greater than 180 µM.

The term Ki denotes the dissociation constant of the complex between target and ligand, obtained from inhibition or displacement. Consider `Cc1ccc(C(C)C)cc1.Cc1ccc(C(C)C)cc1.[Cl][Ru][Cl].[Cl][Ru][Cl]` [Compound P1, dichloro(p-cymene)ruthenium(II) dimer], for which the 50% inhibitory concentration (IC50) is 32.7 µM in data set [6], greater than 180 µM in data set [7] and greater than 180 µM in data set [8]. Besides, the Ki in data set [6] was 23.3 µM.

Take `CN(C)C(=O)Oc1cccc([N+](C)(C)C)c1` [Neostigmine, neostigmine methyl sulphate, reference compound]: the “inhibition of AChE in mouse diaphragm muscle” value in data set [9] is on record as 96%. The IC50 in data set [2] came to 28.4 µM; in data set [3] it was 62.8 µM; in data set [4] it was 3.9 µM; in data set [5], 174 µM. The “effect on nerve-evoked single-muscle and tetanic contraction” value in [10] (3 µM, positive control) is “a slight increase in the amplitude of the nerve-evoked single-muscle contraction and a tetanic fade”.

Take “[(η^6-p-Cymene)Ru(II)(1-hydroxy-3-methoxypyridine-2(1H)-thionato)Cl] [C1′]”: in data set [1], the “inhibition of hrAChE (in words)” value is on record as “low micromolar range”, the “type of inhibition of hrAChE” value is listed as “reversible competitive type” and the half-inhibitory concentration (IC50) is 5.04 µM. Moreover, the inhibition constant Ki in data set [1] (substrate 0.125, 0.25, 0.5 mM) was 5.35 µM. Further, in data set [2], the “inhibition of csBChE (in words)” value is recorded as “low micromolar range”, the “type of inhibition of csBChE” value is reported as “reversible competitive type” and half-maximal inhibition (IC50) was put at 2.27 µM. In data set [2] (substrate 0.125, 0.25, 0.5 mM), this compound displayed a Ki of 3 µM. In data set [3], the “inhibition of hsBChE (in words)” value is “low micromolar range”, the “type of inhibition of hsBChE” value is recorded as “reversible competitive type” and the concentration for half-maximal inhibition (IC50) amounted to 2.34 µM. In addition, in [4], the “inhibition of eeAChE (in words)” value is “low micromolar range”, the “type of inhibition of eeAChE” value is listed as “reversible competitive type” and the IC50 worked out at 7.5 µM. This compound registered a Ki in [4] (substrate 0.125, 0.25, 0.5 mM) of 4.8 µM. In data set [11], this compound had a Ki of 3.4 µM. In data set [5], the “inhibition of hrBChE (in words)” value is “low micromolar range”, the “type of inhibition of hrBChE” value was “reversible competitive type” and the half-maximal inhibitory concentration (IC50) is 1.29 µM. Besides, the Ki in data set [5] (substrate 0.125, 0.25, 0.5 mM) was 1.25 µM.

Turning to “[(η^6-p-Cymene)Ru(II)(1-hydroxy-3-methoxypyridine-2(1H)-thionato)pta]PF6 [Compound C1]”, the “resting membrane potential (rVm), median” value in data set [12] (30 min after exposure) is listed as −66.13 mV. Moreover, in data set [12] (60 min after exposure), the “resting membrane potential (rVm), median” value was −66.63 mV. Also, the “effect on resting membrane potential (rVm)” value in [12] (after 30 and 60 min of exposure) is “no effect”. Also, in data set [12] (within 60 min), the MEPPs frequency entry was “without reducing”, the “amplitudes of EPPs” value is “did not affect” and the “amplitudes of MEPPs” value is reported as “significantly decreased”. In data set [12] (within 60 min of exposure), the “half-decay time of EPPs” value is “shortened” and the “half-decay time of MEPPs” value is “shortened”. Also, in data set [1], the “inhibition of hrAChE (in words)” value is “did not inhibit” and the IC50 is greater than 180 µM. For the same compound, the IC50 in data set [2] was greater than 180 µM. Moreover, the “inhibition of csBChE (in words)” value in data set [2] (concentrations (0–180 µM) tested) was “did not inhibit”. Further, in data set [3], the “inhibition of hsBChE (in words)” value was “selectively inhibited”, the “type of inhibition of hsBChE” value is on record as “reversible competitive type” and half-maximal inhibition (IC50) required 2.88 µM. Also, the “nerve-evoked single-twitch and tetanic contractions” value in data set [10] (120 µM, 60 min exposure) is listed as “not statistically significant increases”. Further, in data set [10] (30, 60, 90 and 120 µM, 60 min exposure), the “effect on maximal amplitude of nerve-evoked and directly elicited single-twitch and tetanic contractions” value was “no significant effect”. Moreover, the resting muscle tension result in data set [10] (30-120 µM, an increase would indicate a myotoxic effect) is reported as “did not detect an increase”. Moreover, in data set [4], the “inhibition of eeAChE (in words)” value is given as “did not inhibit” and the half-inhibitory concentration (IC50) is greater than 180 µM. In addition, the inhibition constant Ki in data set [11] is 1.33 µM. Besides, the IC50 in data set [5] was determined as 144 µM. The “inhibition of hrBChE lower compared to hsBChE” value in data set [5] (ratio of IC50 hrBChE versus hsBChE) was “about 50 times”.
